Experimental data from patent publication US20190177440A1, “COMPOUND OR SALT THEREOF, ANTI-INFLAMMATORY AGENT, ANTI-CANCER AGENT AGAINST LUNG CANCER, METHOD OF PRODUCING COMPOUND OR SALTS THEREOF, METHOD OF TREATING INFLAMMATORY DISEASES AND METHOD OF TREATING LUNG CANCER” (TFK CO., LTD., priority 2016, published 2019).

Experiments:
[1] = tested on: IL-6; experiment: IL-6 production in THP-1 cells stimulated with LPSp, with or without PPARγ inhibitor GW9662 (Example 8-1); assay type: cell-based, human; details: final 100, 1,000 and 10,000 ng/mL, LPSp 100 ng/mL, GW9662- (PPARγ not inhibited), FIG. 8
Procedure: In the same manner as “(1) Preparation of test solution” in Example 3, a solution having a concentration of the purified product of 20,000 ng/mL was prepared, and the solution was serially diluted with a culture solution having the following composition, thereby obtaining a total of three test solutions having a concentration of 400 ng/mL, 4,000 ng/mL, and 40000 ng/mL. Since the three test solutions are diluted four-fold when added to the cells, the final concentrations of the purified products are 100 ng/mL, 1,000 ng/mL, and 10,000 ng/mL, respectively.
The culture medium was added to cells derived from human peripheral blood monocytes (THP-1, manufactured by DS Pharma Biomedical Co., Ltd.) to prepare solutions in which the concentrations of the cells were 4×10^5 cells/mL. The solutions were seeded in 24 well plates in 500 μL portions, i.e., 2.0×10^5 cells/500 μL/well. After seeding, 250 μL of the culture medium or 250 μL of the culture medium containing 40 μmol/L of GW9662 (manufactured by Wako Pure Chemical Industries, Ltd.) was added to the wells. The GW9662 is an inhibitor of PPARγ (Peroxisome proliferator-activated receptor γ) which is one type of nuclear receptor. After the addition, the mixture was incubated at 37° C. in a 5% CO2 for 1 hour. Thereafter, 250 μl of the test solution was added to each well, and the wells were incubated at 37° C. in a 5% CO2 for 22 hours. After culturing, the culture supernatant of each well was collected in a 2 mL tube. A new 0.5 mL of the culture medium was added to each well, spread over the whole well, and collected in the 2 mL tube. To each empty well was added 0.49 mL of fresh culture medium. The culture solution collected in the 2 mL tube was centrifuged at 1,000 rpm for 5 minutes, the supernatant was removed, and 1 mL of the fresh culture solution was added to suspend, and centrifuged again under the same conditions. After centrifugation, the supernatant was removed and 0.49 mL of culture medium in each well was added to the 2 mL tube, suspended and returned to each well. Then, 250 μL of the culture medium or 250 μL of the culture medium containing 40 μmol/L of the above GW9662 was added to the wells, and the wells were cultured at 37° C. in a 5% CO2 for 1 hour. After the incubation, 250 μL of the culture medium containing LPSp was added to the wells so that the final concentration of the LPSp was 100 ng/mL, and the wells were incubated at 37° C. in a 5% CO2 for 22 hours.
After culturing, the culture supernatants of the wells were collected in tubes, centrifuged, and the supernatants were collected in 1.5-mL tubes. The absorbance was measured using Human IL-6 ELISA MAX Deluxe (Biolegend Corporation), and the concentrations of Interleukin-6 (IL-6) were calculated.

[2] = tested on: NF-κB; experiment: Nuclear NF-κB level in RAW264.7 mouse macrophage cells (Example 4); assay type: cell-based; details: final 1 and 100 ng/mL, 24 hours pre-treatment, no LPSp, FIG. 4
Procedure: In the same manner as “(1) Preparation of test solution” in Example 3, a solution having a concentration of the purified product of 20,000 ng/mL was prepared, and the solution was serially diluted with a culture solution having the following composition, thereby obtaining two test solutions having 100 ng/mL and 10,000 ng/mL. Since the two test solutions are diluted 100-fold when added to the cells, the final concentrations of the purified product are 1 ng/mL and 100 ng/mL, respectively.
The culture medium was added to mouse macrophage cells (RAW264.7, ATCC) to prepare solutions at concentrations of 1.067×10^6 cells/mL. The solutions were seeded in 6 well plates in 3 mL portions, i.e., 3.2×10^6 cells/3 mL/well. After seeding, the test solution was incubated at 37° C. in a 5% CO2 for 2 hours, and 30 μL of the test solution was added to each well. After adding the test solution, the test solution was incubated at 37° C. in a 5% CO2 for 24 hours. The culture supernatant of each of the wells was then collected in a 15 mL tube. Then, 1 mL of the fresh culture solution was added to each of the wells, and after spreading over the entire well, the operation of collecting the culture solution into the 15 mL tube was repeated twice. Thereafter, the culture solution collected in the 15 mL tube was centrifuged at 1,000 rpm for 3 minutes, the supernatant was removed, and 3 mL of a new culture solution at 37° C. was added to suspend the culture solution, and centrifuged again under the same conditions. After centrifugation, the supernatant was removed, and 2 mL of the above-mentioned culture solution at 37° C. was added to the precipitate and suspended. Then, 2 mL of the suspension was added to each well to which 1 mL of a new culture medium had been added in advance. Thereafter, 30 μL of a new culture medium was added (hereinafter, this step is referred to as a “culture medium addition step”). After incubation at 37° C. in a 5% CO2 for 30 minutes, the culture supernatants of the wells were collected in 15-mL tubes, centrifuged at 1,000 rpm for 3 minutes, and the supernatants were removed by an aspirator. In addition, to the wells of the 6-well plate from which the culture supernatant was removed, 3 mL of cooled PBS (Phosphate buffered saline)/Phosphatase Inhibitors solution was added, the cells were removed by pipetting, and the cell suspension was added to the 15-mL tubes. The 15 mL tube was centrifuged at 1,000 rpm for 3 minutes, the supernatant was removed by an aspirator, and 0.5 mL of the cooled PB S/Phosphatase Inhibitors solution was added to the 15 mL tube and suspended to prepare a cell suspension. […]
The amount of NF-κB in the nucleoprotein was confirmed by measuring the absorbance using the Trans AM NF KB p65 kit (manufactured by Active Motif).

| Compound | IL-6 concentration in culture supernatant [1] | amount of NF-κB in the nucleoprotein (absorbance) [2] |
| --- | --- | --- |
| CCCCCC/C=C/CCCCCC(=O)OC(CCCCCCCCCCC)CC(=O)NC1C(OCC2OC(OP(=O)(O)O)C(NC(=O)CC(=O)CCCCCCCCCCC)C(OC(=O)CC(O)CCCCCCC)C2O)OC(COC2(C(=O)O)CC(OC3(C(=O)O)CC(O)C(OC4OC(C(=O)O)C(OC5OC(CO)C(O)C(O)C5O)C(O)C4O)C(C(O)CO)O3)C(OC3OC(CO)C(O)C(O)C3O)C(C(O)CO)O2)C(OP(=O)(O)O)C1OC(=O)CC(O)CCCCCCC (centres unmarked) [Formula (B2)] | Equivalent results were obtained | Equivalent results were obtained |
| CCCCCC/C=C/CCCCCC(=O)OC(CCCCCCCCCCC)CC(=O)NC1C(OCC2OC(OP(=O)(O)O)C(NC(=O)CC(=O)CCCCCCCCCCC)C(OC(=O)CC(O)CCCCCCC)C2O)OC(COC2(C(=O)O)CC(OC3(C(=O)O)CC(OC4OC(C(=O)O)C(OC5OC(CO)C(O)C(O)C5O)C(O)C4O)C(O)C(C(O)CO)O3)C(OC3OC(CO)C(O)C(O)C3O)C(C(O)CO)O2)C(OP(=O)(O)O)C1OC(=O)CC(O)CCCCCCC (centres unmarked) [Formula (A2)] | Equivalent results were obtained | Equivalent results were obtained |
| CCCCCC/C=C/CCCCCC(=O)OC(CCCCCCCCCCC)CC(=O)NC1C(OCC2OC(OP(=O)(O)O)C(NC(=O)CC(=O)CCCCCCCCCCC)C(OC(=O)CC(O)CCCCCCC)C2O)OC(COC2(C(=O)O)CC(OC3(C(=O)O)CC(OC4OC(C(=O)O)C(OC5OC(CO)C(O)C(O)C5O)C(O)C4O)C(O)C(C(O)CO)O3)C(OC3OC(COP(=O)(O)O)C(OC4OC(CO)C(O)C(O)C4O)C(O)C3O)C(C(O)CO)O2)C(OP(=O)(O)O)C1OC(=O)CC(O)CCCCCCC (centres unmarked) [Formula (A1)] | Equivalent results were obtained | Equivalent results were obtained |
| CCCCCC/C=C/CCCCCC(=O)OC(CCCCCCCCCCC)CC(=O)NC1C(OCC2OC(OP(=O)(O)O)C(NC(=O)CC(=O)CCCCCCCCCCC)C(OC(=O)CC(O)CCCCCCC)C2O)OC(COC2(C(=O)O)CC(OC3(C(=O)O)CC(O)C(OC4OC(C(=O)O)C(OC5OC(CO)C(O)C(O)C5O)C(O)C4O)C(C(O)CO)O3)C(OC3OC(COP(=O)(O)O)C(OC4OC(CO)C(O)C(O)C4O)C(O)C3O)C(C(O)CO)O2)C(OP(=O)(O)O)C1OC(=O)CC(O)CCCCCCC (centres unmarked) [Formula (B1)] | Equivalent results were obtained | Equivalent results were obtained |
